Test results from patent publication US20240368088A1, “EP4 ANTAGONIST COMPOUND AS WELL AS SALT, POLYMORPH AND USE THEREOF” (Wuhan Humanwell Innovative Drug Research and Development …, priority 2021, published 2024).
≈ marks a conversion by molar mass, not a printed value. Values belong to the compound of their own block, whether it stands above or below them.

Assays:
[1] = Hygroscopicity evaluation by dynamic vapor sorption (DVS); format: physicochemical
Experimental: Dynamic vapor sorption (DVS) curves are acquired on a DVS IntrInsic in Surface Measurement Systems (SMS). The relative humidity at 25° C. is corrected with the deliquescence points of LiCI, Mg (NO3)2, and KCI.
Starting at 0% RH, the test acquired the percentage change in mass of the sample when humidity changed (0% RH to 95% RH to 0% RH) at a constant temperature of 25° C.

[2] = Dynamic solubility experiment at 37° C. in water, SGF, FaSSIF and FeSSIF; conditions: for solubility at 1 h / solubility at 2 h / solubility at 4 h / solubility at 24 h: 37 °C, thermodynamic from solid; for Crystal form change: XRPD of centrifuged solid; for pH: pH value of filtrate;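 for all read-outs here: at each sampling time, filtrate assayed by HPLC for concentration and for pH, centrifuged solid checked by XRPD, media SGF at pH 1.8, FaSSIF 6.5, FeSSIF 5.0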
Experimental: In the test, the purity, dynamic solubility and stability are tested by an Agilent 1260 high-performance liquid chromatograph.
The solid at a feeding concentration of 10 mg/mL (40 mg of solid in 4 mL of solvent, calculated as free acid) was rotationally mixed at 37° C., and the solubility of each sample in four systems of water, SGF, FaSSIF, and FeSSIF was determined at different time points (1 h, 2 h, 4 h, and 24 h). After sampling at each time point, the sample was centrifuged (at 10000 rpm) and filtered (through a 0.45 μm PTFE filter head), the filtrate was determined for HPLC concentration and pH value, and the centrifuged solid samples were tested for XRPD.
200.3 mg of NaCl and 105.0 mg of Triton X-100 were weighed out and added to a 50-mL volumetric flask, purified water was added, and the mixture was completely dissolved. 136 μL of concentrated hydrochloric acid (12 M) was added, and the pH was adjusted to 1.8 with 1 M hydrochloric acid or 1 M NaOH solution. Purified water was added, and the mixed solution was brought to volume.
0.34 g of anhydrous NaH2PO4, 0.44 g of NaOH, and 0.62 g of NaCl were weighed out and added to a 50-mL volumetric flask. Purified water was added, the mixture was completely dissolved, and the pH was adjusted to 6.5 with 1 M hydrochloric acid or 1 M NaOH solution. Purified water was added, and the mixed solution was brought to volume. 0.11 g of SIF powder was then weighed out, and the mixed solution was completely dissolved.
0.82 mL of glacial acetic acid, 0.40 g of NaOH, and 1.19 g of NaCl were added to a 50-mL volumetric flask. About 48 mL of purified water was added, the mixture was completely dissolved, and the pH was adjusted to 5.0 with 1 M hydrochloric acid or 1 M NaOH solution. Purified water was added, and the mixed solution was brought to volume. 0.56 g of SIF powder was then weighed out, and the mixed solution was completely dissolved.

[3] = Solid state stability (XRPD and HPLC after uncovered storage); conditions: for Relative to starting (%): HPLC purity; for Purity (area %): HPLC
Experimental: XRPD patterns are acquired on an X-ray powder diffraction analyzer manufactured by PANalytacal, and the scanning parameters are shown in Table A-1 below.
The free acid crystal form A and the crystal form A of the tromethamine salt were left to stand uncovered for 1/4 weeks at 25° C./60% RH and 40° C./75% RH, respectively, and then the physical and chemical stability of the samples was tested by XRPD and HPLC.

[4] = Crystal form conversion on drying at room temperature; format: physicochemical
Experimental: The free acid crystal form A was dissolved in MIBK (methyl isobutyl ketone), and then the mixture was subjected to gas-liquid diffusion in an n-pentane atmosphere to obtain free acid crystal form B (XRPD pattern thereof shown in FIG. 5).

[5] = SGF, pH 1.8, simulated gastric fluid
[6] = 25° C./60% RH/uncovered, 1 week
[7] = 25° C./60% RH/uncovered, 4 weeks
[8] = 40° C./75% RH/uncovered, 1 week
[9] = 40° C./75% RH/uncovered, 4 weeks

- hygroscopicity (in words) ([1]; DVS, 25° C./80% RH): almost no hygroscopicity
- vapor sorption ([1]; DVS, 25° C./80% RH): 0.07%
- crystal form after DVS test ([1]; XRPD before and after DVS, 0% RH to 95% RH to 0% RH, 25° C.): unchanged
- hygroscopicity (summary statement) ([1]; beneficial effects summary): relatively low hygroscopicity
- solubility at 1 h ([2]; FaSSIF, pH 6.5, fassif): 1960 µg/mL (≈ 4090 µM)
- solubility at 2 h ([2]; FaSSIF, pH 6.5, fassif): 1830 µg/mL (≈ 3820 µM)
- solubility at 4 h ([2]; FaSSIF, pH 6.5, fassif): 1860 µg/mL (≈ 3880 µM)
- solubility at 24 h ([2]; FaSSIF, pH 6.5, fassif): 1590 µg/mL (≈ 3320 µM)
- solubility at 1 h ([2]; FeSSIF, pH 5, fessif): 210 µg/mL (≈ 438 µM)
- solubility at 2 h ([2]; FeSSIF, pH 5, fessif): 220 µg/mL (≈ 459 µM)
- solubility at 4 h ([2]; FeSSIF, pH 5, fessif): 220 µg/mL (≈ 459 µM)
- solubility at 24 h ([2]; FeSSIF, pH 5, fessif): 210 µg/mL (≈ 438 µM)
- solubility at 1 h [2, 5]: 40 µg/mL (≈ 83.4 µM)
- solubility at 2 h [2, 5]: 40 µg/mL (≈ 83.4 µM)
- solubility at 4 h [2, 5]: 50 µg/mL (≈ 104 µM)
- solubility at 24 h [2, 5]: 40 µg/mL (≈ 83.4 µM)
- Crystal form change ([2]; FaSSIF, 37° C., 1 h): No
- Crystal form change ([2]; FaSSIF, 37° C., 2 h): No
- Crystal form change ([2]; FaSSIF, 37° C., 4 h): No
- Crystal form change ([2]; FaSSIF, 37° C., 24 h): No
- Crystal form change ([2]; FeSSIF, 37° C., 1 h, Yes^a: converted to the free acid crystal form A): No
- Crystal form change ([2]; FeSSIF, 37° C., 2 h, Yes^a: converted to the free acid crystal form A): No
- Crystal form change ([2]; FeSSIF, 37° C., 4 h, Yes^a: converted to the free acid crystal form A): No
- Crystal form change ([2]; FeSSIF, 37° C., 24 h, Yes^a: converted to the free acid crystal form A): No
- Crystal form change ([2]; H2O, 37° C., 1 h): No
- Crystal form change ([2]; H2O, 37° C., 2 h): No
- Crystal form change ([2]; H2O, 37° C., 4 h): No
- Crystal form change ([2]; H2O, 37° C., 24 h): No
- Crystal form change ([2]; SGF, 37° C., 1 h, Yes^a: converted to the free acid crystal form A): No
- Crystal form change ([2]; SGF, 37° C., 2 h, Yes^a: converted to the free acid crystal form A): No
- Crystal form change ([2]; SGF, 37° C., 4 h, Yes^a: converted to the free acid crystal form A): No
- Crystal form change ([2]; SGF, 37° C., 24 h, Yes^a: converted to the free acid crystal form A): No
- pH ([2]; FaSSIF, 37° C., 1 h): 6.1
- pH ([2]; FaSSIF, 37° C., 2 h): 6.1
- pH ([2]; FaSSIF, 37° C., 4 h): 6.1
- pH ([2]; FaSSIF, 37° C., 24 h): 6.1
- pH ([2]; FeSSIF, 37° C., 1 h): 4.9
- pH ([2]; FeSSIF, 37° C., 2 h): 4.9
- pH ([2]; FeSSIF, 37° C., 4 h): 4.9
- pH ([2]; FeSSIF, 37° C., 24 h): 5.0
- pH ([2]; H2O, 37° C., 1 h): 8.3
- pH ([2]; H2O, 37° C., 2 h): 8.4
- pH ([2]; H2O, 37° C., 4 h): 8.3
- pH ([2]; H2O, 37° C., 24 h): 4.8
- pH ([2]; SGF, 37° C., 1 h): 1.8
- pH ([2]; SGF, 37° C., 2 h): 1.8
- pH ([2]; SGF, 37° C., 4 h): 1.8
- pH ([2]; SGF, 37° C., 24 h): 1.8
- solubility at 1 h ([2]; water): 80 µg/mL (≈ 167 µM)
- solubility at 2 h ([2]; water): 80 µg/mL (≈ 167 µM)
- solubility at 4 h ([2]; water): 90 µg/mL (≈ 188 µM)
- solubility at 24 h ([2]; water): 130 µg/mL (≈ 271 µM)
- crystal form after the vehicle solubility tests ([2]; water, SGF, FaSSIF, FeSSIF, 37° C., XRPD): unchanged
- physicochemical stability (summary statement) [3]: good physicochemical stability
- HPLC purity change after placement (in words) ([3]; 25° C./60% RH and 40° C./75% RH, uncovered, 1/4 weeks): not significantly changed
- crystal form change after placement (in words) ([3]; 25° C./60% RH and 40° C./75% RH, uncovered, 1/4 weeks, XRPD): not changed
- Relative to starting (%) [3, 6]: 99.81%
- Relative to starting (%) [3, 7]: 99.83%
- Relative to starting (%) [3, 8]: 99.79%
- Relative to starting (%) [3, 9]: 99.77%
- Purity (area %) [3, 6]: 94.14 area %
- Purity (area %) [3, 7]: 94.19 area %
- Purity (area %) [3, 8]: 94.15 area %
- Purity (area %) [3, 9]: 94.13 area %
- Purity (area %) ([3]; Starting): 94.35 area %
SMILES: C[C@H](NC(=O)c1c(C(F)F)nn(C)c1Oc1cccc(C(C)(F)F)c1)c1ccc(C(=O)O)cc1 [Free acid crystal form A, (S)-4-(1-(5-(3-(1,1-difluoroethyl)phenoxy)-3-(difluoromethyl)-1-methyl-1H-pyrazole-4-carboxamide)ethyl)benzoic acid]

SMILES: C[C@H](NC(=O)c1c(C(F)F)nn(C)c1Oc1cccc(C(C)(F)F)c1)c1ccc(C(=O)O)cc1 [free acid crystal form B, (S)-4-(1-(5-(3-(1,1-difluoroethyl)phenoxy)-3-(difluoromethyl)-1-methyl-1H-pyrazole-4-carboxamide)ethyl)benzoic acid]
- crystal form after being dried at room temperature [4]: converted into the free acid crystal form A
